Test results: ChEMBL document CHEMBL1201862, “PubChem BioAssay data set” (2004)
The source made the active and inactive calls.

What was measured:
[1] = target: T1, Glycogen synthase kinase-3 beta (Homo sapiens, UniProt P49841); experiment: Inhibition of Human GSK-3 beta Activity Measured in Biochemical System Using Microfluidics - 2063-05_Inhibitor_Dose_DryPowder_Activity_Set2. [Related pubchem assays (depositor defined):AID2709]
[2] = target: T2, Glycogen synthase kinase-3 alpha (Homo sapiens, UniProt P49840); experiment: Inhibition of Human GSK-3 alpha Activity Measured in Biochemical System Using Microfluidics - 2063-06_Inhibitor_Dose_DryPowder_Activity_Set2. [Related pubchem assays (depositor defined):AID2709]
T2 sequence (P49840 whole entry): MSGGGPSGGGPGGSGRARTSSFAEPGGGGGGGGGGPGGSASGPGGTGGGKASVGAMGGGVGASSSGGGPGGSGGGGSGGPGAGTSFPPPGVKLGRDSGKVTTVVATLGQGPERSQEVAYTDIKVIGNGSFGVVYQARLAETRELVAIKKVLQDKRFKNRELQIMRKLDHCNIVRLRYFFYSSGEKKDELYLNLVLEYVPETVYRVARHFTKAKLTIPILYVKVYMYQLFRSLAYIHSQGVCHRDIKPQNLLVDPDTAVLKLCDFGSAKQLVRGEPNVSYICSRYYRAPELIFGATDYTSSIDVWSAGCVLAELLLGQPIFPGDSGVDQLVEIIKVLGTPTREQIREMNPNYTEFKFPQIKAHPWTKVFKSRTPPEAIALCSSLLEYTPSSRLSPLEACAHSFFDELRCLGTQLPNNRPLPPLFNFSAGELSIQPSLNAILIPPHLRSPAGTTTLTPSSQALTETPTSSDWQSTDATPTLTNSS

[3] = target: T3, Cyclin-dependent kinase 5/CDK5 activator 1 (Homo sapiens, UniProt Q00535); experiment: human CDK5 activity blockade – biochemical, microfluidic mobility shift, dry powder, selectivity assay for GSK-3 alpha inhibitor project, dose response (AID 588430)
T3 sequence (Q00535 whole entry): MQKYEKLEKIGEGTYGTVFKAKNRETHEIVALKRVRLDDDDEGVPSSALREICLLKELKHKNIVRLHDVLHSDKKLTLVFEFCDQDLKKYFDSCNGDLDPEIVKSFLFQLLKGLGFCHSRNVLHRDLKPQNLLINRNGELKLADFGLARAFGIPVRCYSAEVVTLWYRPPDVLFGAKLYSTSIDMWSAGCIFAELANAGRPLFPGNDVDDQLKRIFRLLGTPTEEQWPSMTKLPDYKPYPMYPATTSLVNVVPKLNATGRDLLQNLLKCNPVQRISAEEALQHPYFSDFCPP
T3 sequence (Q15078 whole entry, further chain): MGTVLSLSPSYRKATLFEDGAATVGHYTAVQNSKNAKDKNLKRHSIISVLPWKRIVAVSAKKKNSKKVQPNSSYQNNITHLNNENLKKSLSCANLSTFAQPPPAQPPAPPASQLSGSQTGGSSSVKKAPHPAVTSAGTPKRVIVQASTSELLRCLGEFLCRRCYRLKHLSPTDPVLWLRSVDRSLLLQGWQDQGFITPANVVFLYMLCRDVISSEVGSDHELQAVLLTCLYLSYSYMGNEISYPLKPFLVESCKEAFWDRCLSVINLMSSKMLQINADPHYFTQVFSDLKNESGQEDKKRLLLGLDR

Insulin-degrading enzyme [4] = target: T4, Insulin-degrading enzyme (Homo sapiens, UniProt P14735); experiment: recombinant IDE activation, cell-free – biochemical, fluorescence polarization, counter-screen for IDE activator project, dose response (AID 588681)
T4 sequence (P14735 whole entry): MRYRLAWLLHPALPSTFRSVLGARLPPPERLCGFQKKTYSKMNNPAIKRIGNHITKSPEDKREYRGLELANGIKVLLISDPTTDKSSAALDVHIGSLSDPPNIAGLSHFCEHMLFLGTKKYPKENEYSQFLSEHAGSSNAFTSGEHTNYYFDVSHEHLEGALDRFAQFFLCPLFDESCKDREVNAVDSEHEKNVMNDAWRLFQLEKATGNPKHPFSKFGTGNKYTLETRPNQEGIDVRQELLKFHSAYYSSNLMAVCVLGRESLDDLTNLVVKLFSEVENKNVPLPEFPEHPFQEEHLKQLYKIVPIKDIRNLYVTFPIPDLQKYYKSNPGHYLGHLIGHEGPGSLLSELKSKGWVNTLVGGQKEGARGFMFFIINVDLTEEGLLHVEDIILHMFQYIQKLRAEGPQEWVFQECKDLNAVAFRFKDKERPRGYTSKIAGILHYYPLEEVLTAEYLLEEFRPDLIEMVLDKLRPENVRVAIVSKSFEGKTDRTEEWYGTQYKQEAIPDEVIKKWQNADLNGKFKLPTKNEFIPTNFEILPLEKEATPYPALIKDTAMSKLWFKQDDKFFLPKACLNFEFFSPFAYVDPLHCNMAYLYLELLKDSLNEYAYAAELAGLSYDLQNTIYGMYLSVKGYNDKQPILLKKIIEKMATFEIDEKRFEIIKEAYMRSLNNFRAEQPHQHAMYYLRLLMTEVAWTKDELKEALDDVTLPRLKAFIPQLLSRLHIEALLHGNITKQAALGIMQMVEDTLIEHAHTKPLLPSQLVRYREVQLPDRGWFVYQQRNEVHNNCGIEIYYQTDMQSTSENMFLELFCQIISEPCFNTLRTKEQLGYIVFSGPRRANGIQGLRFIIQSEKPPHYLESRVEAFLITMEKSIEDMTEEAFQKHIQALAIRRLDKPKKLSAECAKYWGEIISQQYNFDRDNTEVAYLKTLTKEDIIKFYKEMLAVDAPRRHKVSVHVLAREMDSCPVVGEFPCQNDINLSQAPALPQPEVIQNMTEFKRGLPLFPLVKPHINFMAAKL

[5] = target: T5, Zinc finger protein mex-5 (Caenorhabditis elegans, UniProt Q9XUB2); experiment: potency of MEX-5 RNA-binding blockers – biochemical, C. elegans, fluorescence polarization, dose response (AID 1960)
T5 sequence (Q9XUB2 whole entry): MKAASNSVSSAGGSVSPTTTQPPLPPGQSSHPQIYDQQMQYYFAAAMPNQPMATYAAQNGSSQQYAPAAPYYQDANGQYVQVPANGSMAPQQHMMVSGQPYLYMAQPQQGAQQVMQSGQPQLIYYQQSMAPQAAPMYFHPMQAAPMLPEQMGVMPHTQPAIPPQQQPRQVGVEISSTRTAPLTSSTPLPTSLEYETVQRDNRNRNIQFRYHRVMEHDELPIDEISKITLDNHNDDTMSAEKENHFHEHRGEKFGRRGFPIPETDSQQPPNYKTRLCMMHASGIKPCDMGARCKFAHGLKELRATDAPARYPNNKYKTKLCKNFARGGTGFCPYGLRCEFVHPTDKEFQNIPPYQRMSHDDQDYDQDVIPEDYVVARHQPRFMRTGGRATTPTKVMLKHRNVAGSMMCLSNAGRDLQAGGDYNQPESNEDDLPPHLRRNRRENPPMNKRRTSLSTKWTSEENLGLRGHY

HEK293 [6] = experiment: optical interference in Abeta FP readout, dose response, artefact control for IDE activator project, biochemical, fluorescence polarization (AID 588442); format: functional, cell-based; conditions: Homo sapiens
Insulin-degrading enzyme [7] = target: T4, Insulin-degrading enzyme; experiment: cellular IDE activation of Abeta substrate cleavage – fluorescence polarization, HEK cells, dose response (AID 588439); format: functional, cell-based
[8] = NIH-3T3 fibroblast cytotoxicity, dose response, cytotoxicity control, cell-based, fluorescence, Alamar Blue, secondary assay (AID 2327); format: functional;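 also: NIH-3T3 mouse fibroblasts cultured with fluconazole at 8 µg/mL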
[9] = target: T6, RNA-binding protein pos-1 (Caenorhabditis elegans, UniProt G5EF15); experiment: disruptors of C. elegans POS-1 RNA interaction – biochemical, fluorescence polarization, dose response (AID 1964);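 also: purified POS-1 fused to maltose binding protein made in E. coli; potency of compounds blocking POS-1 binding to fluorescent RNA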
T6 sequence (G5EF15 whole entry): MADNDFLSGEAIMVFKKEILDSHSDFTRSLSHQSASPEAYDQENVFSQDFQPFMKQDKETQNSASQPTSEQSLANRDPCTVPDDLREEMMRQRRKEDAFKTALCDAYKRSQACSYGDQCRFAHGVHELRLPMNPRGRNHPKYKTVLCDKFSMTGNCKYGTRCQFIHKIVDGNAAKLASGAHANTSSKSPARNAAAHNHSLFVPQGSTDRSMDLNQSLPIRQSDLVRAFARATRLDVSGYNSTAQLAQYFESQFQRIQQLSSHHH

[10] = fluconazole-exposed Candida albicans growth modulators – fluorescence, retest, confirmation (AID 2467); format: functional, cell-based
HEK293 [11] = experiment: membrane integrity loss in HEK cells – cell-based, fluorescence, cytotoxicity control for IDE activator project, dose response (AID 588440); format: functional; conditions: Homo sapiens;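 also: cytotoxicity by LDH release measuring loss of membrane integrity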
[12] = microbe, parasite or virus in culture; format: functional; conditions: Mycobacterium tuberculosis
Vero = experiment: cells; format: functional; conditions: Chlorocebus sabaeus
[13] = target: 72 kDa type IV collagenase (Homo sapiens, UniProt P08253); experiment: Dose Response validation of uHTS RPN11 inhibitor hits using a MMP-2 Fluorescence assay.; format: functional
[14] = target: 26S proteasome non-ATPase regulatory subunit 14 (Homo sapiens, UniProt O00487); experiment: inhibition of proteasome subunit RPN11 – biochemical, fluorescence polarization, uHTS hits, confirmation (AID 602368); format: functional
Chain of 26S proteasome non-ATPase regulatory subunit 14 (O00487 whole entry): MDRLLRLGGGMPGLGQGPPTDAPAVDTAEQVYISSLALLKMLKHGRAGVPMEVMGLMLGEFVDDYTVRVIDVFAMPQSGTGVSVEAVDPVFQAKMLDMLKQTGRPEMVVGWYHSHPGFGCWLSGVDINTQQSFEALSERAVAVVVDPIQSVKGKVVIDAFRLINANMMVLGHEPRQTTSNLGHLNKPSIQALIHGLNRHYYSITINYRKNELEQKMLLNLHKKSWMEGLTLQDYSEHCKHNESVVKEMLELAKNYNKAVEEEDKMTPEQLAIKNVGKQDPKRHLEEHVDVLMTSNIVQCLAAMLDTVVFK

Prothrombin = Prothrombin (Bos taurus, UniProt P00735); experiment: thrombin protease inhibitors – biochemical, fluorescence polarization, uHTS hits, dose response (AID 602369); format: functional
[15] = target: ALK tyrosine kinase receptor (Homo sapiens, UniProt Q9UM73); format: functional;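 also: ALK tested as one member of a kinase panel screen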
[16] = target: Cyclin-dependent kinase 19 (Homo sapiens, UniProt Q9BWU1); experiment: Navigating the Kinome. Panel member name: CDC2L6; format: functional
Chain of Cyclin-dependent kinase 19 (Q9BWU1 whole entry): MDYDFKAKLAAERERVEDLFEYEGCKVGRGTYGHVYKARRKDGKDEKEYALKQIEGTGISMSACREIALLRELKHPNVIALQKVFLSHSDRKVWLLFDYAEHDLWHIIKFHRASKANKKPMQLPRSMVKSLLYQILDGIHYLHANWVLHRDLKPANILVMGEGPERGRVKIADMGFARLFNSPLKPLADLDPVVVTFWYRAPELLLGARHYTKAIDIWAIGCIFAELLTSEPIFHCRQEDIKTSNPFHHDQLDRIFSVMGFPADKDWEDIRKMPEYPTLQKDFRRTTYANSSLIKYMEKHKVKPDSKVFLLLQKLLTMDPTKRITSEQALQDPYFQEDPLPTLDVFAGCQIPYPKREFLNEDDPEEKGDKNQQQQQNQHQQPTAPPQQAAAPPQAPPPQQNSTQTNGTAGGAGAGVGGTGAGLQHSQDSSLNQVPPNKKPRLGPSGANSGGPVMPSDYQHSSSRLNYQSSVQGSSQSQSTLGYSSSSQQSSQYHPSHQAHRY

[17] = target: T2, Glycogen synthase kinase-3 alpha; format: functional
Activin receptor type-1 = Activin receptor type-1 (Homo sapiens, UniProt Q04771); experiment: Navigating the Kinome. Panel member name: ACVR1; format: functional
Chain of Activin receptor type-1 (Q04771 whole entry): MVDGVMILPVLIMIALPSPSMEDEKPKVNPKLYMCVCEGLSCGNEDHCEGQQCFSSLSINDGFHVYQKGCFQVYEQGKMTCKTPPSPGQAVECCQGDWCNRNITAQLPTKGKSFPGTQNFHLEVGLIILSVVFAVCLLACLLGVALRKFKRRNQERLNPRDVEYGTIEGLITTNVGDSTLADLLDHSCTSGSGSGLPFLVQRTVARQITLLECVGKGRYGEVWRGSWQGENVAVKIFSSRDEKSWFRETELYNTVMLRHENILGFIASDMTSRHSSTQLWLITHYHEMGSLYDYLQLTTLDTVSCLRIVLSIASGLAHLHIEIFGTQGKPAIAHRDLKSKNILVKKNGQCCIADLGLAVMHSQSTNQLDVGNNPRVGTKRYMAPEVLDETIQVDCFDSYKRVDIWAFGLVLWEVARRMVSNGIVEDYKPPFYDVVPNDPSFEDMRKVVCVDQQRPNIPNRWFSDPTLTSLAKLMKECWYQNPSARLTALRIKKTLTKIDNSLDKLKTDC

[18] = target: T1, Glycogen synthase kinase-3 beta; format: functional
[19] = target: Receptor-type tyrosine-protein kinase FLT3 (Homo sapiens, UniProt P36888); format: functional;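 also: FLT3 was tested as one member of a kinome-wide kinase panel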
[20] = target: T7, High affinity choline transporter 1 (Homo sapiens, UniProt Q9GZV3); experiment: human choline transporter potentiators, potency – cell-based, 10-point CRC, membrane potential dye, dose response (AID 602376); format: functional
T7 sequence (Q9GZV3 whole entry): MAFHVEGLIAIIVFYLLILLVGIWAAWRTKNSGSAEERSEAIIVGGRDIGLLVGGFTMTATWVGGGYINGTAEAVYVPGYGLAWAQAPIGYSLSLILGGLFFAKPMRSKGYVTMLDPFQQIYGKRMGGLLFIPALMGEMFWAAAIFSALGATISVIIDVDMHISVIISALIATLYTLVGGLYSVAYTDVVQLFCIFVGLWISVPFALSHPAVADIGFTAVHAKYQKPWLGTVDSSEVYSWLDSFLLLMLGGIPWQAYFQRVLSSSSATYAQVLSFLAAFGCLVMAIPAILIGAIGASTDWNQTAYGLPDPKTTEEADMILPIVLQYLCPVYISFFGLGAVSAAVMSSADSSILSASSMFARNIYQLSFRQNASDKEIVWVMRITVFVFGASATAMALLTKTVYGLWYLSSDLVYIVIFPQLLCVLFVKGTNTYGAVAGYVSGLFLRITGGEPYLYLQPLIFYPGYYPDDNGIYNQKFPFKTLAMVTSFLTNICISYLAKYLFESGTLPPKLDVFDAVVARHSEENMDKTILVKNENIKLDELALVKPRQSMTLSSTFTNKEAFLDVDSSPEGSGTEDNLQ

[21] = target: T1, Glycogen synthase kinase-3 beta; experiment: inhibition of human GSK3B activity – biochemical, microfluidics, dry powder samples, set 2, dose response (AID 623989); format: functional
[22] = target: T3, Cyclin-dependent kinase 5/CDK5 activator 1; experiment: inhibitors of human CDK5 activity – biochemical, microfluidic mobility shift, dry powder, set 2, selectivity assay for GSK3beta inhibitor project, dose response (AID 623979); format: functional
[23] = target: Serine/threonine-protein kinase pim-1 (Homo sapiens, UniProt P11309); format: functional
Chain of Serine/threonine-protein kinase pim-1 (P11309 whole entry): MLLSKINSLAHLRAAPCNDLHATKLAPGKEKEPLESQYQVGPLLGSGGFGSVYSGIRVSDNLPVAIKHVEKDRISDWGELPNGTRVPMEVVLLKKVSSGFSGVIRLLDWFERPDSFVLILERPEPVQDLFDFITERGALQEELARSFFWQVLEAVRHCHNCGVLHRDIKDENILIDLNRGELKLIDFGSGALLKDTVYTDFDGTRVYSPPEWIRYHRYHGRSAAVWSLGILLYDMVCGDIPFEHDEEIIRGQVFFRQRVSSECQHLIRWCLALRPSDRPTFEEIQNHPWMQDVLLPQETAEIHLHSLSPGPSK

[24] = target: Dual specificity protein kinase CLK4 (Homo sapiens, UniProt Q9HAZ1); format: functional
Chain of Dual specificity protein kinase CLK4 (Q9HAZ1 whole entry): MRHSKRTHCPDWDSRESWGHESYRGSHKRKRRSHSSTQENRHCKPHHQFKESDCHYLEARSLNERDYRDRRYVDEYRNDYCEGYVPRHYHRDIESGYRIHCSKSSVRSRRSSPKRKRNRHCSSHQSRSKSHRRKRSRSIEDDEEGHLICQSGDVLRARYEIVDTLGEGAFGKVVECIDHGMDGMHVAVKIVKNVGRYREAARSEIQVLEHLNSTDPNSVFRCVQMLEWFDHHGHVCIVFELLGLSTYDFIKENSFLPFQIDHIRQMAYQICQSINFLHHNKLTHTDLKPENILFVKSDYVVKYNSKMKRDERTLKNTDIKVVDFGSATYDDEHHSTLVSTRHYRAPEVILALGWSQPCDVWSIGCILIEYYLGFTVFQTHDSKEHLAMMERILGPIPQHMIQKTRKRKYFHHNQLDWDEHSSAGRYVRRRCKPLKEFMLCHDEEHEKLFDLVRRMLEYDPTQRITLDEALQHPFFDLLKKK

[25] = target: Dual specificity protein kinase CLK2 (Homo sapiens, UniProt P49760); format: functional
Chain of Dual specificity protein kinase CLK2 (P49760 whole entry): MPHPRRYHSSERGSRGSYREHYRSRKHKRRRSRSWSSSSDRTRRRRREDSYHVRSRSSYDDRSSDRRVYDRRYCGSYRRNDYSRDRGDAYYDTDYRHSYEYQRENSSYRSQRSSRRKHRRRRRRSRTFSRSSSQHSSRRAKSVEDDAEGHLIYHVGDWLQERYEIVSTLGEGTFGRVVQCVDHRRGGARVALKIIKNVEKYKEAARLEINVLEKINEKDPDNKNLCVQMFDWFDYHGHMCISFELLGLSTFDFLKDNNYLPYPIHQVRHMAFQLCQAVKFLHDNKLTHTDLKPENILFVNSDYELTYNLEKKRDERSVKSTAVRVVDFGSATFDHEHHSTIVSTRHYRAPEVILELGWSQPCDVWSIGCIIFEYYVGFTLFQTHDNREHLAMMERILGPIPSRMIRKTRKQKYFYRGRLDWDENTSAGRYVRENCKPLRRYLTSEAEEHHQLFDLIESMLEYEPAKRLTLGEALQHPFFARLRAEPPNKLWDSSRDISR

[26] = target: Vascular endothelial growth factor receptor 2 (Homo sapiens, UniProt P35968); format: functional
Aurora kinase B = Aurora kinase B (Homo sapiens, UniProt Q96GD4); format: functional
Chain of Aurora kinase B (Q96GD4 whole entry): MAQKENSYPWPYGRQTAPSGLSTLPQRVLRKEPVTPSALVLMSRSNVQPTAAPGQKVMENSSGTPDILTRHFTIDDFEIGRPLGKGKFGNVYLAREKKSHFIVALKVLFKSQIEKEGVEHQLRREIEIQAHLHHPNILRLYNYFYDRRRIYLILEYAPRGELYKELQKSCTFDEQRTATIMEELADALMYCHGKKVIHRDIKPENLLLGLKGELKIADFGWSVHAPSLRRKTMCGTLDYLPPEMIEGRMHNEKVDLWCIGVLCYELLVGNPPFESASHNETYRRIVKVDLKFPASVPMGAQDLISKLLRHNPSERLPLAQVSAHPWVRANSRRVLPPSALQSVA

Aurora kinase A = Aurora kinase A (Homo sapiens, UniProt O14965); format: functional;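 also: value from the Navigating the Kinome kinase panel profiling, panel entry STK6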
Chain of Aurora kinase A (O14965 whole entry): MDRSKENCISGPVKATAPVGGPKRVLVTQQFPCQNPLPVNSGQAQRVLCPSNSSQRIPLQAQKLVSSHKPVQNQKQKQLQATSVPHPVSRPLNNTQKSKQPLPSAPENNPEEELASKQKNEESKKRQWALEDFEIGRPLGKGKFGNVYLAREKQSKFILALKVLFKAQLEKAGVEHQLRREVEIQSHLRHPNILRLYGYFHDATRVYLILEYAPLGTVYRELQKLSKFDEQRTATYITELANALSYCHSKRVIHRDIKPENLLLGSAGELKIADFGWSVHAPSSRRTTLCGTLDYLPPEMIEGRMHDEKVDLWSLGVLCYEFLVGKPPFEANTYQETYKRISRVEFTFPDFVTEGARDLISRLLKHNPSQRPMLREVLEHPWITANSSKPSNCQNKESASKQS

[27] = target: Melanin-concentrating hormone receptor 1 (Homo sapiens, UniProt Q99705); experiment: Late-stage fluorescence-based counterscreen for antagonists of the G-protein coupled receptor 7 (GPR7): cell-based dose response assay to identify antagonists of the melanin-concentrating hormone receptor 1 (MCHR1) Set 5.; format: functional
[28] = target: Protein disulfide-isomerase (Homo sapiens, UniProt P07237); experiment: inhibition of PDI-driven insulin aggregation – biochemical, turbidity, absorbance, cherry-picked samples, dose response (AID 602350); format: functional
[29] = THP-1 cell cytotoxicity, cytotoxicity control, set 4 (AID 504911); format: functional; conditions: Mycobacterium tuberculosis
[30] = Vero cell cytotoxicity, dose response, cytotoxicity control for M. tuberculosis growth inhibitor project, Vero cells, purified and synthesized compounds, set 4 (AID 504854); format: functional; conditions: Mycobacterium tuberculosis

T1 sequence (P49841 whole entry): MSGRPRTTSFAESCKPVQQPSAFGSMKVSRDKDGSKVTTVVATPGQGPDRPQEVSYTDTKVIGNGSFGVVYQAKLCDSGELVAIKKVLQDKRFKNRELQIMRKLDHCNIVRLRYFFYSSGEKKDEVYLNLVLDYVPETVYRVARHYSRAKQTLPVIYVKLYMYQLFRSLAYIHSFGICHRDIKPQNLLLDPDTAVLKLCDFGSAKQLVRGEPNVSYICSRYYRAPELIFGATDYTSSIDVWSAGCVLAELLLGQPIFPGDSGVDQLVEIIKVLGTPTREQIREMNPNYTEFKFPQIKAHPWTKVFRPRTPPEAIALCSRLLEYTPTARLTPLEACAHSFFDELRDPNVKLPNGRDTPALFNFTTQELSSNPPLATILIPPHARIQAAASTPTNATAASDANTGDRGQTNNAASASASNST

O=C1c2ccccc2-c2onc3ccc(NCCCN4CCNC4)c1c23
AC50 [1]: 0.161 µM (active) | AC50 [2]: 0.52 µM (active) | AC50 [3]: 76.2 µM (active)

O=C1c2cccc3c(O)ccc(c23)C(=O)N1Cc1ccccc1
EC50 (Insulin-degrading enzyme [4]): > 54.7 µM (inactive) | EC50 [5]: 0.183 µM (inconclusive) | EC50 (HEK293 [6]): > 54.7 µM (inactive) | EC50 (Insulin-degrading enzyme [7]): > 54.7 µM (inactive) | EC50 [8]: 85.7 µM (active) | EC50 [9]: 2.62 µM (active) | EC50 [10]: 0.082 µM (active) | IC50 (HEK293 [11]): > 89.2 µM (inactive)

COc1cc(/C=C/C(O)=C2\C(=O)NC(=O)N(CCc3ccccc3)C2=O)ccc1O
CC50 [12]: 15.9 µM (active) | CC50 (Vero): 17.7 µM (active) | IC50 [13]: > 100 µM (inactive) | IC50 [14]: 29.2 µM (active) | IC50 (Prothrombin): 40.6 µM (active)

Cn1cc(Nc2ncc(Br)c(Nc3cccc(C(N)=O)c3)n2)cn1
Ki [15]: 3.16 µM (active) | Ki [16]: 6.31 µM (active)

CCc1cnn2c(NCc3ccc[n+]([O-])c3)cc(N3CCCCC3CCO)nc12 (stereo not given)
Ki [17]: 1.58 µM (active) | Ki (Activin receptor type-1): > 3.98 µM (inactive) | Ki [18]: 1.26 µM (active) | Ki [19]: > 3.16 µM (inactive)

COc1cc2c(cc1OC)C(c1cccs1)N(C(S)=NC(C)C)CC2 (stereo not given)
EC50 [20]: 17.5 µM (active)

O=C(Cc1cccc2ccccc12)Nc1cn(C2CCC2)cn1
AC50 [21]: 8.41 µM (active) | AC50 [22]: 0.137 µM (active)

COCCn1c(C)c(C)sc1=NC(=O)c1cc(SC)ccc1Cl
Ki [23]: 6.31 µM (active) | Ki [24]: 5.01 µM (active) | Ki [25]: 6.31 µM (active)

O=C1NC(=S)NC(=O)C1=Cc1ccc(-c2ccc(C(=O)O)c(O)c2)o1
Ki [26]: > 5.01 µM (inactive) | Ki (Aurora kinase B): 0.0398 µM (active) | Ki (Aurora kinase A): 0.126 µM (active)

COc1ccc(Oc2c(Cl)cnn(C3=Nc4cc(Cl)ccc4Oc4ncccc43)c2=O)cc1
IC50 [27]: 8.51 µM (active)

CC[C@]12c3[nH]c4cc(-c5ccco5)ccc4c3CCN1C(=O)[C@@H](CC(=O)NCc1ccc(OC)c(OC)c1)C[C@@H]2C(=O)N1CCN(C(=O)c2ccco2)CC1
AC50 [28]: 4.25 µM (active)

CC(C)NC(=O)CSc1nc2ccccc2c(=O)[nH]1
CC50 [29]: > 100 µM (active) | CC50 [30]: > 100 µM (active)
